PubChem BioAssay AID1918937 (Molecular Pharmacology Branch, DTP, NCI, 2023)
Several values for one entry are separate records, joined by “and”; a condition that tells them apart may be missing. Identical values can stand only once. Values belong to the compound of their own block, whether it stands above or below them.

Tested on: 521955-158-R2-J5-PDC complex spheroid viability
Assay: Anticancer human tumor 521955-158-R2-J5-PDC patient-derived pancreatic carcinoma cell line growth inhibition
Conditions: for viability, T/C: stronger effect = lower value
Method in brief: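 Drug combinations with the LSD1 inhibitor iadademstat tested on tumor cells co-cultured as spheroids with endothelial cells and mesenchymal stem cells. Concentrations descended in half-log increments from clinical Cmax or 10 microM.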

[1] = curve of first compound, second compound 0.1 µM
[2] = curve of first compound, second compound 0.316 µM
[3] = curve of first compound, second compound 1 µM
[4] = curve of first compound, second compound 3.16 µM
[5] = curve of first compound, second compound 10 µM
[6] = second compound 0.1 µM, first compound 0.0316 µM
[7] = second compound 0.1 µM, first compound 0.1 µM
[8] = second compound 0.1 µM, first compound 0.316 µM
[9] = second compound 0.1 µM, first compound 1 µM
[10] = second compound 0.316 µM, first compound 0.0316 µM
[11] = second compound 0.316 µM, first compound 0.1 µM
[12] = second compound 0.316 µM, first compound 0.316 µM
[13] = second compound 0.316 µM, first compound 1 µM
[14] = second compound 1 µM, first compound 0.0316 µM
[15] = second compound 1 µM, first compound 0.1 µM
[16] = second compound 1 µM, first compound 0.316 µM
[17] = second compound 1 µM, first compound 1 µM
[18] = second compound 3.16 µM, first compound 0.0316 µM
[19] = second compound 3.16 µM, first compound 0.1 µM
[20] = second compound 3.16 µM, first compound 0.316 µM
[21] = second compound 3.16 µM, first compound 1 µM
[22] = second compound 10 µM, first compound 0.0316 µM
[23] = second compound 10 µM, first compound 0.1 µM
[24] = second compound 10 µM, first compound 0.316 µM
[25] = second compound 10 µM, first compound 1 µM
[26] = second compound 0.1 µM, first compound 3.16 µM
[27] = second compound 0.1 µM, first compound 10 µM
[28] = second compound 0.316 µM, first compound 3.16 µM
[29] = second compound 0.316 µM, first compound 10 µM
[30] = second compound 1 µM, first compound 3.16 µM
[31] = second compound 1 µM, first compound 10 µM
[32] = second compound 3.16 µM, first compound 3.16 µM
[33] = second compound 3.16 µM, first compound 10 µM
[34] = second compound 10 µM, first compound 3.16 µM
[35] = second compound 10 µM, first compound 10 µM
[36] = second compound 0.1 µM, first compound 0.000949 µM
[37] = second compound 0.1 µM, first compound 0.003 µM
[38] = second compound 0.1 µM, first compound 0.00949 µM
[39] = second compound 0.1 µM, first compound 0.03 µM
[40] = second compound 0.1 µM, first compound 0.0949 µM
[41] = second compound 0.1 µM, first compound 0.3 µM
[42] = second compound 0.316 µM, first compound 0.000949 µM
[43] = second compound 0.316 µM, first compound 0.003 µM
[44] = second compound 0.316 µM, first compound 0.00949 µM
[45] = second compound 0.316 µM, first compound 0.03 µM
[46] = second compound 0.316 µM, first compound 0.0949 µM
[47] = second compound 0.316 µM, first compound 0.3 µM
[48] = second compound 1 µM, first compound 0.000949 µM
[49] = second compound 1 µM, first compound 0.003 µM
[50] = second compound 1 µM, first compound 0.00949 µM
[51] = second compound 1 µM, first compound 0.03 µM
[52] = second compound 1 µM, first compound 0.0949 µM
[53] = second compound 1 µM, first compound 0.3 µM
[54] = second compound 3.16 µM, first compound 0.000949 µM
[55] = second compound 3.16 µM, first compound 0.003 µM
[56] = second compound 3.16 µM, first compound 0.00949 µM
[57] = second compound 3.16 µM, first compound 0.03 µM
[58] = second compound 3.16 µM, first compound 0.0949 µM
[59] = second compound 3.16 µM, first compound 0.3 µM
[60] = second compound 10 µM, first compound 0.000949 µM
[61] = second compound 10 µM, first compound 0.003 µM
[62] = second compound 10 µM, first compound 0.00949 µM
[63] = second compound 10 µM, first compound 0.03 µM
[64] = second compound 10 µM, first compound 0.0949 µM
[65] = second compound 10 µM, first compound 0.3 µM
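Note: spheroids exposed to agents for seven days.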
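Throughout, for viability, T/C: percent of DMSO vehicle control luminescence viability.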

SMILES: COc1cc(Nc2ncc3c(n2)-c2ccc(Cl)cc2C(c2c(F)cccc2OC)=NC3)ccc1C(=O)O + NC1CCC(NC2CC2c2ccccc2)CC1
IC50 [1]: 5.87 nM
IC50 [2]: 34 nM
IC50 [3]: 74.5 nM
IC50 [4]: 15.2 nM
IC50 [5]: 42.1 nM
viability, T/C (second compound 0.1 µM, first compound 0.00316 µM): 49.1%
viability, T/C (second compound 0.1 µM, first compound 0.01 µM): 54.5%
viability, T/C [6]: 45.8%
viability, T/C [7]: 41.7%
viability, T/C [8]: 44.8%
viability, T/C [9]: 46.7%
viability, T/C (second compound 0.316 µM, first compound 0.00316 µM): 54.4%
viability, T/C (second compound 0.316 µM, first compound 0.01 µM): 56.7%
viability, T/C [10]: 50.3%
viability, T/C [11]: 45%
viability, T/C [12]: 45.2%
viability, T/C [13]: 46.2%
viability, T/C (second compound 1 µM, first compound 0.00316 µM): 45.7%
viability, T/C (second compound 1 µM, first compound 0.01 µM): 54.1%
viability, T/C [14]: 51.5%
viability, T/C [15]: 49.8%
viability, T/C [16]: 41.8%
viability, T/C [17]: 38%
viability, T/C (second compound 3.16 µM, first compound 0.00316 µM): 55.2%
viability, T/C (second compound 3.16 µM, first compound 0.01 µM): 50.2%
viability, T/C [18]: 50.1%
viability, T/C [19]: 44.9%
viability, T/C [20]: 39.1%
viability, T/C [21]: 41.8%
viability, T/C (second compound 10 µM, first compound 0.00316 µM): 48.8%
viability, T/C (second compound 10 µM, first compound 0.01 µM): 53.9%
viability, T/C [22]: 50.5%
viability, T/C [23]: 46.9%
viability, T/C [24]: 36.2%
viability, T/C [25]: 36.7%

SMILES: O=C(c1cc(Cc2n[nH]c(=O)c3ccccc23)ccc1F)N1CCN(C(=O)C2CC2)CC1 + NC1CCC(NC2CC2c2ccccc2)CC1
IC50 [1]: > 10000 nM
IC50 [2]: > 10000 nM
IC50 [3]: > 10000 nM
IC50 [4]: > 10000 nM
IC50 [5]: > 10000 nM
viability, T/C [6]: 109%
viability, T/C [7]: 107%
viability, T/C [8]: 100%
viability, T/C [9]: 98.6%
viability, T/C [26]: 89.3%
viability, T/C [27]: 56.6%
viability, T/C [10]: 106%
viability, T/C [11]: 108%
viability, T/C [12]: 103%
viability, T/C [13]: 102%
viability, T/C [28]: 89%
viability, T/C [29]: 57.8%
viability, T/C [14]: 97.9%
viability, T/C [15]: 99.6%
viability, T/C [16]: 99.4%
viability, T/C [17]: 94.8%
viability, T/C [30]: 97.1%
viability, T/C [31]: 54.9%
viability, T/C [18]: 98.4%
viability, T/C [19]: 101%
viability, T/C [20]: 99.6%
viability, T/C [21]: 102%
viability, T/C [32]: 86.8%
viability, T/C [33]: 59.5%
viability, T/C [22]: 102%
viability, T/C [23]: 105%
viability, T/C [24]: 99%
viability, T/C [25]: 95.3%
viability, T/C [34]: 81.9%
viability, T/C [35]: 55.9%

SMILES: O=C(c1cc(Cc2n[nH]c(=O)c3ccccc23)ccc1F)N1CCN(C(=O)C2CC2)CC1 + NC1CC1c1ccc(-c2cccc(O)c2)cc1
IC50 [1]: > 10000 nM
IC50 [2]: > 10000 nM
IC50 [3]: > 10000 nM
IC50 [4]: > 10000 nM
IC50 [5]: > 10000 nM
viability, T/C [6]: 80.9%
viability, T/C [7]: 87.5%
viability, T/C [8]: 88.4%
viability, T/C [9]: 87.4%
viability, T/C [26]: 81.5%
viability, T/C [27]: 69.1%
viability, T/C [10]: 90.5%
viability, T/C [11]: 82.3%
viability, T/C [12]: 89.1%
viability, T/C [13]: 74.7%
viability, T/C [28]: 74.6%
viability, T/C [29]: 66.2%
viability, T/C [14]: 77.9%
viability, T/C [15]: 79.7%
viability, T/C [16]: 79.7%
viability, T/C [17]: 77.1%
viability, T/C [30]: 67%
viability, T/C [31]: 59.5%
viability, T/C [18]: 81.8%
viability, T/C [19]: 82.2%
viability, T/C [20]: 83.3%
viability, T/C [21]: 75.6%
viability, T/C [32]: 69.1%
viability, T/C [33]: 55.8%
viability, T/C [22]: 87.7%
viability, T/C [23]: 84.9%
viability, T/C [24]: 83.4%
viability, T/C [25]: 78.4%
viability, T/C [34]: 68.1%
viability, T/C [35]: 55.7%

SMILES: Nc1ccn(C2OC(CO)C(O)C2(F)F)c(=O)n1 (configuration not stated) + NC1CCC(NC2CC2c2ccccc2)CC1
IC50 [1]: 50.9 nM
IC50 [2]: 55.5 nM
IC50 [3]: 56.2 nM
IC50 [4]: 50.1 nM
IC50 [5]: 43.5 nM
viability, T/C [36]: 105%
viability, T/C [37]: 104%
viability, T/C [38]: 96.8%
viability, T/C [39]: 68.4%
viability, T/C [40]: 28.4%
viability, T/C [41]: 16.3%
viability, T/C [42]: 105%
viability, T/C [43]: 98.8%
viability, T/C [44]: 96.2%
viability, T/C [45]: 79.7%
viability, T/C [46]: 24.2%
viability, T/C [47]: 11.2%
viability, T/C [48]: 95.3%
viability, T/C [49]: 97.2%
viability, T/C [50]: 90.1%
viability, T/C [51]: 74.8%
viability, T/C [52]: 29.5%
viability, T/C [53]: 12.6%
viability, T/C [54]: 104%
viability, T/C [55]: 96.6%
viability, T/C [56]: 82.6%
viability, T/C [57]: 69.5%
viability, T/C [58]: 28.8%
viability, T/C [59]: 12.8%
viability, T/C [60]: 101%
viability, T/C [61]: 98%
viability, T/C [62]: 83.7%
viability, T/C [63]: 63.2%
viability, T/C [64]: 26%
viability, T/C [65]: 10.4%

SMILES: Nc1ncn(C2CC(O)C(CO)S2)c(=O)n1 (configuration not stated) + NC1CC1c1ccc(-c2cccc(O)c2)cc1
IC50 [1]: > 300 nM
IC50 [2]: > 300 nM
IC50 [3]: > 300 nM
IC50 [4]: > 300 nM
IC50 [5]: > 300 nM
viability, T/C [36]: 90.7%
viability, T/C [37]: 96.2%
viability, T/C [38]: 90.1%
viability, T/C [39]: 98%
viability, T/C [40]: 85.2%
viability, T/C [41]: 64.7%
viability, T/C [42]: 98.7%
viability, T/C [43]: 94.3%
viability, T/C [44]: 93.1%
viability, T/C [45]: 89.5%
viability, T/C [46]: 76.6%
viability, T/C [47]: 69.2%
viability, T/C [48]: 98.4%
viability, T/C [49]: 90%
viability, T/C [50]: 94%
viability, T/C [51]: 88.8%
viability, T/C [52]: 90%
viability, T/C [53]: 75.3%
viability, T/C [54]: 98.5%
viability, T/C [55]: 101%
viability, T/C [56]: 92.7%
viability, T/C [57]: 91%
viability, T/C [58]: 87.6%
viability, T/C [59]: 69.9%
viability, T/C [60]: 99%
viability, T/C [61]: 105%
viability, T/C [62]: 100%
viability, T/C [63]: 97.3%
viability, T/C [64]: 90.3%
viability, T/C [65]: 71.8%

IC50 (curve of compound): 5.21 nM and 6.17 nM
SMILES: CC[C@@]1(O)C(=O)OCc2c1cc1n(c2=O)Cc2cc3c(CN(C)C)c(O)ccc3nc2-1
viability, T/C (compound 0.000316 µM): 108% and 106%
viability, T/C (compound 0.001 µM): 109% and 103%
viability, T/C (compound 0.00316 µM): 77.4% and 85.3%
viability, T/C (compound 0.01 µM): 14.3% and 24.3%
viability, T/C (compound 0.0316 µM): 7.49% and 11.1%
viability, T/C (compound 0.1 µM): 6.01% and 6.55%
